PubChem BioAssay AID330 (DTP/NCI, 2004)
Values joined by “and” are separate entries in the source; they are usually repeats but may differ in a detail not shown here. Identical values can stand only once. Inconclusive results and toxic doses are left out. The calls were made as follows: active = survival T/C of 150% or more; inactive = T/C below 125% in these data.

System: P388 leukemia ip, CD2F1 mice, survival T/C
Experiment: NCI In Vivo Anticancer Drug Screen. Data for tumor model P388 Leukemia (intraperitoneal) in CD2F1 (CDF1) mice
Details: endpoint: median survival time, higher = longer survival
Method in brief: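 Mice carrying the transplanted tumor received test compound or vehicle. Survival was recorded in each group, and the value is the treated-group measurement divided by that of the vehicle-treated control group.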

[1] = dose: 50.0 mg/kg/injection, schedule: Q01DX009 (ip), vehicle: saline with Tween-80
[2] = dose: 100.0 mg/kg/injection, schedule: Q01DX009 (ip), vehicle: saline with Tween-80
[3] = dose: 200.0 mg/kg/injection, schedule: Q01DX009 (ip), vehicle: saline with Tween-80
[4] = dose: 12.5 mg/kg/injection, schedule: Q01DX009 (ip), vehicle: Klucel (hydroxypropylcellulose) (HPC)
[5] = dose: 25.0 mg/kg/injection, schedule: Q01DX009 (ip), vehicle: Klucel (hydroxypropylcellulose) (HPC)
[6] = dose: 50.0 mg/kg/injection, schedule: Q01DX009 (ip), vehicle: Klucel (hydroxypropylcellulose) (HPC)
[7] = dose: 100.0 mg/kg/injection, schedule: Q01DX009 (ip), vehicle: Klucel (hydroxypropylcellulose) (HPC)
[8] = dose: 12.5 mg/kg/injection, schedule: Q01DX009 (ip), vehicle: saline with Tween-80
[9] = dose: 100.0 mg/kg/injection, schedule: Q01DX009 (ip), vehicle: saline
[10] = dose: 200.0 mg/kg/injection, schedule: Q01DX009 (ip), vehicle: saline
[11] = dose: 50.0 mg/kg/injection, schedule: Q01DX009 (ip), vehicle: saline

Measured: T/C

CC([NH-])C(C)[NH-].[Cl][Pt+2][Cl] (centres undefined)
inactive: dose: 3.12 mg/kg/injection, schedule: Q01DX001 (ip), vehicle: Klucel (hydroxypropylcellulose) (HPC) 119 % of control
active: dose: 12.5 mg/kg/injection, schedule: Q01DX001 (ip), vehicle: Klucel (hydroxypropylcellulose) (HPC) 153 % of control and 154 % of control | dose: 25.0 mg/kg/injection, schedule: Q01DX001 (ip), vehicle: Klucel (hydroxypropylcellulose) (HPC) 184 % of control

NC(=S)c1ccc(C2Nc3cccnc3N2)cc1 (centres undefined)
inactive: [1] 93 % of control | [2] 95 % of control | [3] 90 % of control

C/C=C(/C)C(=O)OC1c2c(C)coc2CC23OC2CCC(C)C13C (centres undefined)
inactive: [4] 98 % of control | [5] 105 % of control | [6] 99 % of control

COc1ccc(C2CC(=O)C=C3c4ccc(OC)cc4CCC32)cc1 (centres undefined)
inactive: [6] 91 % of control | [7] 91 % of control

CC1=CCC2C([C@H]1OC(=O)c1ccc([N+](=O)[O-])cc1)C(C)(C)CCC[C@]2(C)O (some centres undefined)
inactive: dose: 100.0 mg/kg/injection, schedule: Q04DX002 (ip), vehicle: Klucel (hydroxypropylcellulose) (HPC) 98 % of control | dose: 200.0 mg/kg/injection, schedule: Q04DX002 (ip), vehicle: Klucel (hydroxypropylcellulose) (HPC) 89 % of control | dose: 400.0 mg/kg/injection, schedule: Q04DX002 (ip), vehicle: Klucel (hydroxypropylcellulose) (HPC) 90 % of control

COC(=O)[C@]12CCC(C)(C)C[C@H]1C1=CC[C@@H]3[C@@]4(C)C[C@H](O)[C@H](OC5OC(CO)C(O)C(O)C5O)C(CO)(CO)[C@@H]4CC[C@@]3(C)[C@]1(C)C[C@H]2O (some centres undefined)
inactive: dose: 2.5 mg/kg/injection, schedule: Q01DX005 (ip), vehicle: Klucel (hydroxypropylcellulose) (HPC) 94 % of control | dose: 5.0 mg/kg/injection, schedule: Q01DX005 (ip), vehicle: Klucel (hydroxypropylcellulose) (HPC) 95 % of control | dose: 10.0 mg/kg/injection, schedule: Q01DX005 (ip), vehicle: Klucel (hydroxypropylcellulose) (HPC) 100 % of control | dose: 20.0 mg/kg/injection, schedule: Q01DX005 (ip), vehicle: Klucel (hydroxypropylcellulose) (HPC) 101 % of control

CN(C)c1ccc(C2OC3(CCCCC3)C[N+]23CCCC3)cc1 (centres undefined)
inactive: dose: 3.12 mg/kg/injection, schedule: Q01DX009 (ip), vehicle: saline with Tween-80 100 % of control | dose: 6.25 mg/kg/injection, schedule: Q01DX009 (ip), vehicle: saline with Tween-80 104 % of control | [8] 86 % of control

Cc1cccc(N=Nc2c(-c3ccccc3)nn(C(N)=S)c2-c2ccccc2)c1C
inactive: dose: 73.9 mg/kg/injection, schedule: Q04DX002 (ip), vehicle: Klucel (hydroxypropylcellulose) (HPC) 96 % of control | dose: 147.0 mg/kg/injection, schedule: Q04DX002 (ip), vehicle: Klucel (hydroxypropylcellulose) (HPC) 96 % of control | dose: 295.0 mg/kg/injection, schedule: Q04DX002 (ip), vehicle: Klucel (hydroxypropylcellulose) (HPC) 100 % of control

CC(C)Oc1nc(N2CCNCC2)nc2c1CCCC2
inactive: dose: 15.0 mg/kg/injection, schedule: Q01DX005 (ip), vehicle: saline 101 % of control | dose: 30.0 mg/kg/injection, schedule: Q01DX005 (ip), vehicle: saline 104 % of control | dose: 60.0 mg/kg/injection, schedule: Q01DX005 (ip), vehicle: saline 111 % of control and 90 % of control

CN(C)c1ccc(C(c2cc3c(cc2O)OCO3)N2CCCC2)cc1 (centres undefined)
inactive: dose: 60.0 mg/kg/injection, schedule: Q01DX005 (ip), vehicle: Klucel (hydroxypropylcellulose) (HPC) 108 % of control | dose: 120.0 mg/kg/injection, schedule: Q01DX005 (ip), vehicle: Klucel (hydroxypropylcellulose) (HPC) 109 % of control | dose: 240.0 mg/kg/injection, schedule: Q01DX005 (ip), vehicle: Klucel (hydroxypropylcellulose) (HPC) 109 % of control

CC1c2ccccc2CC(CCN(C)C)c2ccccc21 (centres undefined)
inactive: dose: 6.25 mg/kg/injection, schedule: Q01DX005 (ip), vehicle: saline with Tween-80 101 % of control and 102 % of control and 106 % of control | dose: 12.5 mg/kg/injection, schedule: Q01DX005 (ip), vehicle: saline with Tween-80 101 % of control and 109 % of control (2×) | dose: 25.0 mg/kg/injection, schedule: Q01DX005 (ip), vehicle: saline with Tween-80 109 % of control and 97 % of control | dose: 50.0 mg/kg/injection, schedule: Q01DX005 (ip), vehicle: saline with Tween-80 110 % of control

O=[N+]([O-])c1ccc2c(c1)sc1cc([N+](=O)[O-])c(Br)cc12
inactive: [1] 104 % of control | [2] 102 % of control | [3] 112 % of control | dose: 400.0 mg/kg/injection, schedule: Q01DX009 (ip), vehicle: saline with Tween-80 103 % of control

CC(=O)c1ccc(NC(=O)C#N)cc1
inactive: dose: 7.5 mg/kg/injection, schedule: Q01DX005 (ip), vehicle: saline with Tween-80 104 % of control | dose: 15.0 mg/kg/injection, schedule: Q01DX005 (ip), vehicle: saline with Tween-80 110 % of control

CCOC(=O)CCN(CC)CC
inactive: dose: 88.0 mg/kg/injection, schedule: Q04DX003 (ip), vehicle: saline 100 % of control | [9] 116 % of control | dose: 132.0 mg/kg/injection, schedule: Q04DX003 (ip), vehicle: saline 95 % of control | [10] 111 % of control | dose: 200.0 mg/kg/injection, schedule: Q04DX003 (ip), vehicle: saline 109 % of control | dose: 300.0 mg/kg/injection, schedule: Q04DX003 (ip), vehicle: saline 109 % of control | dose: 400.0 mg/kg/injection, schedule: Q01DX009 (ip), vehicle: saline 111 % of control | dose: 400.0 mg/kg/injection, schedule: Q04DX003 (ip), vehicle: saline 100 % of control

COC(=O)/C(=N\NS(=O)(=O)c1ccc(C)cc1)c1ccccc1
inactive: [4] 99 % of control | [5] 105 % of control | [6] 99 % of control | [7] 98 % of control | dose: 200.0 mg/kg/injection, schedule: Q01DX009 (ip), vehicle: Klucel (hydroxypropylcellulose) (HPC) 90 % of control

COc1cc(OC)cc(C(C)(C)C)c1
inactive: [11] 97 % of control | [9] 100 % of control | [10] 107 % of control

CN(C)C1CCc2ccccc2C1OC(=O)/C=C/c1ccccc1 (centres undefined)
inactive: [8] 101 % of control | dose: 25.0 mg/kg/injection, schedule: Q01DX009 (ip), vehicle: saline with Tween-80 106 % of control | [1] 111 % of control | [2] 111 % of control

CNC(=S)N/N=C/c1ccccn1
inactive: dose: 25.0 mg/kg/injection, schedule: Q01DX009 (ip), vehicle: saline 117 % of control | [11] 116 % of control | [9] 101 % of control | [10] 97 % of control

CSc1nc(C)cc(N)n1
inactive: dose: 12.5 mg/kg/injection, schedule: Q04DX003 (ip), vehicle: Klucel (hydroxypropylcellulose) (HPC) 115 % of control | dose: 25.0 mg/kg/injection, schedule: Q04DX003 (ip), vehicle: Klucel (hydroxypropylcellulose) (HPC) 99 % of control | dose: 50.0 mg/kg/injection, schedule: Q04DX003 (ip), vehicle: Klucel (hydroxypropylcellulose) (HPC) 99 % of control | dose: 100.0 mg/kg/injection, schedule: Q04DX003 (ip), vehicle: Klucel (hydroxypropylcellulose) (HPC) 103 % of control

CC(=O)N1NC(=O)c2c(c3cc(OCc4ccccc4)ccc3n2C)C1C(C)C (centres undefined)
inactive: dose: 30.0 mg/kg/injection, schedule: Q04DX002 (ip), vehicle: Klucel (hydroxypropylcellulose) (HPC) 98 % of control | dose: 60.0 mg/kg/injection, schedule: Q04DX002 (ip), vehicle: Klucel (hydroxypropylcellulose) (HPC) 96 % of control | dose: 120.0 mg/kg/injection, schedule: Q04DX002 (ip), vehicle: Klucel (hydroxypropylcellulose) (HPC) 96 % of control

CCCCCCCCCCCCCCCC[N+](C)(C)C
inactive: dose: 1.56 mg/kg/injection, schedule: Q01DX009 (ip), vehicle: saline 99 % of control and 115 % of control and 120 % of control | dose: 1.56 mg/kg/injection, schedule: Q04DX003 (ip), vehicle: saline with Tween-80 100 % of control | dose: 2.0 mg/kg/injection, schedule: Q01DX009 (ip), vehicle: saline 113 % of control | dose: 3.12 mg/kg/injection, schedule: Q01DX009 (ip), vehicle: saline 118 % of control and 121 % of control | dose: 3.13 mg/kg/injection, schedule: Q01DX009 (ip), vehicle: saline 109 % of control | dose: 3.13 mg/kg/injection, schedule: Q04DX003 (ip), vehicle: saline with Tween-80 104 % of control | dose: 4.7 mg/kg/injection, schedule: Q01DX009 (ip), vehicle: saline 86 % of control | dose: 6.25 mg/kg/injection, schedule: Q04DX003 (ip), vehicle: saline with Tween-80 100 % of control and 112 % of control
